Assay results reported in patent US9447063B2, “Disubstituted adamantyl derivative or pharmaceutically acceptable salt thereof, production method for same, and pharmaceutical composition for suppressing cancer metastasis comprising same as active ingredient” (KOREA RESEARCH INSTITUTE OF BIOSCIENCE AND BIOTECHNOLOGY, priority 2012, dated 2016).

Legend:
[1] = tested on: human colorectal carcinoma cell line HCT116; test: In vivo inhibition of cancer cell proliferation in the mouse by intraperitoneal administration (HCT116 transplant); set-up: species or system Balb/c nude mice; conditions: 30 mg/kg intraperitoneal; for Weight changes over the administration time: nude mice
Protocol: First, female Balb/c nude mice (6 weeks old) were administered with the compound prepared in Example 2 via intraperitoneal injection. […] One week later, any change in the tumor size was observed by comparing the volume of the first formed tumor and the volume measured one week after. On the last day, the tumor was weighed. […] All the values of each measurement title were examined by t-test to investigate the statistical significance of the values obtained from the non-treated group, the group treated with the compound of Example 2, and the positive control group.

B16F10 melanoma cells = test: Inhibition of metastasis in vivo in the test mouse (luciferase imaging); set-up: species or system C57BL/6 mice; conditions: for Weight changes over the administration time: C57BL/6 mice
Protocol: To evaluate the inhibition effect of the compound on metastasis, C57BL/6 mice were transplanted with B16F10 melanoma cells (2×10^6 cells/ml) expressing luciferase via intravenous injection (0.2 ml, 4×10^5 cells/mouse). One hour later, 50 μl of luciferin was administered to each mouse at the concentration of 15 mg/ml via intraperitoneal injection. Then, the compound prepared in Example 2 of the invention was intraperitoneally administered at the concentration of 50 mg/kg 13 times. […] The image of the mouse was photographed every day for 14 days with a live animal imaging system (PHOTON IMAGER, Biospace). On the last day of the experiment, the mouse was sacrificed by using CO2 gas. The lung was extracted from the mouse, and lung metastasis of the skin cancer cells was confirmed. To investigate toxicity, weight and other general symptoms were observed during the experimental period. At this time, all the values of each measurement title were examined by t-test for the statistical significance of the values obtained from the non-treated group, the group treated with the compound of Example 2, and the positive control group. The results are shown in Table 3, Table 4, FIG. 9, and FIG. 10.

CCN(CC)CCNC(=O)c1c(C)[nH]c(/C=C2\C(=O)Nc3ccc(F)cc32)c1C [sunitinib]
Inhibition rate of tumor growth (tumor volume) ([1]; 0 day): (0%)
Tumor volume over the administration time (Vt − Vo) ([1]; 0 day): 0.0 ± 0.0
Weight changes over the administration time ([1]; 0 day): 100.0 ± 0.0%
Inhibition rate of tumor growth (tumor volume) ([1]; 2 days): (31.7%)
Weight changes over the administration time ([1]; 2 days): 100.5 ± 1.4%
Weight changes over the administration time ([1]; 4 days): 100.7 ± 2.0%
Tumor weight at final day ([1]; 7 days): 1064.9 ± 130.9 mg
Weight changes over the administration time ([1]; 7 days): 100.8 ± 3.3%
Weight changes over the administration time (B16F10 melanoma cells; 0 day): 100.0 ± 0.0%
Image signals over the administration time (B16F10 melanoma cells; 0 day, live animal imaging): 857.2 ± 679.3 photons/s/sr
Weight changes over the administration time (B16F10 melanoma cells; 2 days): 100.9 ± 2.2%
Weight changes over the administration time (B16F10 melanoma cells; 4 days): 102.9 ± 2.0%
Image signals over the administration time (B16F10 melanoma cells; 4 days, live animal imaging, Example 2 50 mg/kg, sunitinib 30 mg/kg): 222.0 ± 146.1 photons/s/sr
Weight changes over the administration time (B16F10 melanoma cells; 7 days): 103.0 ± 2.8%
Weight changes over the administration time (B16F10 melanoma cells; 9 days): 106.0 ± 3.1%
Inhibition rate of tumor metastasis (image signals) (B16F10 melanoma cells; 9 days, live animal imaging): (19.9%)
Image signals over the administration time (B16F10 melanoma cells; 9 days, live animal imaging, Example 2 50 mg/kg, sunitinib 30 mg/kg): 47.5 ± 10.7 photons/s/sr
Weight changes over the administration time (B16F10 melanoma cells; 11 days): 105.4 ± 2.9%
Weight changes over the administration time (B16F10 melanoma cells; 14 days): 107.7 ± 3.3%
Image signal at final day (B16F10 melanoma cells; 14 days, extracted lung imaging, Example 2 50 mg/kg, sunitinib 30 mg/kg): 21738.7 ± 14939.0
Image signals over the administration time (B16F10 melanoma cells; 14 days, live animal imaging, Example 2 50 mg/kg, sunitinib 30 mg/kg): 13084.0 ± 8931.2 photons/s/sr
